In patent publication US20070021484A1, “Substituted N-cinnamyl benzamides” (ChemoCentryx, Inc., priority 2005, published 2007):
Structures can show the parent of a compound that is named as a salt.

Biological target: T1, CCXCKR2 receptor (Homo sapiens, UniProt P25106)
T1 construct: The compounds were combined with mammary gland cells expressing the CCXCKR2 receptor in the presence of the ^125I-labeled chemokine; host or cells: MCF-7 (endogenous receptor) and/or MDA-MB-435S stably transfected with pcDNA3.1(+)-hRDC1
T1 sequence (P25106 whole entry): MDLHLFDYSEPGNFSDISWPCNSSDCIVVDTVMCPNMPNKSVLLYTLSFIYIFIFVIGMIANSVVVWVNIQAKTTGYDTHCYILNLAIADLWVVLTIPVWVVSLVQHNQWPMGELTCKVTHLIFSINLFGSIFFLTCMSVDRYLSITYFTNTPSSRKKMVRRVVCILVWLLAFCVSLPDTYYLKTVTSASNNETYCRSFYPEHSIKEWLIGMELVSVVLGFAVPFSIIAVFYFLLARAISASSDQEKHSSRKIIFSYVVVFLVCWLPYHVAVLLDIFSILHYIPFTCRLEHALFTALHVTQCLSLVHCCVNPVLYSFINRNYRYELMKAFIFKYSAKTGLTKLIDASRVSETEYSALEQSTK
Test: Displacement of 125I-labeled SDF-1 from the CCXCKR2 receptor (radioligand binding, determination of IC50 values)
Conditions: concentration displacing at least 50% of 125I SDF-1 from CCXCKR2; MCF-7 and/or CCXCKR2 transfected MDA-MB-435S cells; 3 hr at 4° C.
Method: The ability of the compounds to displace the labeled chemokine from the CCXCKR2 receptor sites at multiple concentrations was then determined with the screening process.
Compounds that were deemed effective modulators were able to displace at least 50% of the SDF-1 from the CCXCKR2 receptor at concentrations at or below 2.1 micromolar (μM), as represented by the notation (+) for certain exemplary compounds shown in Table B below, and more preferably at concentrations at or below 700 nanomolar (nM) (++). At present, especially preferred compounds can displace at least 50% of the SDF-1 from the CCXCKR2 receptor at concentrations at or below 500 nM (+++). As stated above, Exemplary compounds that met these criteria are reproduced in Table B below. All compounds were prepared as described in the Examples above, or by related methods substituting readily available starting materials.
Reagents and Cells. ^125I-labeled SDF-1 was purchased from Perkin-Elmer Life Sciences, Inc. (Boston, Mass.). The MCF-7 (adenocarcinoma; mammary gland) cell line was obtained from the American Type Culture Collection (Manassas, Va.) or and was cultured in DMEM (Mediatech, Herndon, Va.) supplemented with 10% fetal bovine serum (FBS) (HyClone Logan, Utah) and bovine insulin (0.01 mg/mL) (Sigma, St. Louis, Mo.) at 37° C. in a humidified incubator at a 5% CO2/air mixture. CCXCKR2 transfected MDA-MB-435S were produced as described below. MDA-MB-435S human breast cancer line, was purchased from ATCC, and cultured in DMEM/10% FBS medium. The complete coding sequence of the gene encoding CCXCKR2 (a.k.a.CXCR^7, hRDC1), was isolated from MCF-7 cells using μMACs mRNA isolation kit (Miltenyi Biotec, Auburn, Calif.). DNA contamination was removed by DNase digestion via RNeasy columns (Qiagen, Inc., Valencia, Calif.) and cDNA was generated using GeneAmp RNA PCR Core Kit (Applied Biosystems, Foster City, Calif.). PCR of cDNA samples was performed using Taq PCR Master Mix kit (Qiagen, Inc.) and hRDC1 primers harboring 5′ and 3′ Not I sites
Binding Analysis. Target compounds were tested to determine their ability to bind with CCXCKR2 sites on MCF-7 and/or MDA-MB-435S cells. Efficiency-maximized radioligand binding using filtration protocols as described in Dairaghi D J, et al., HHV8-encoded vMIP-I selectively engages chemokine receptor CCR5. Agonist and antagonist profiles of viral chemokines., J. Biol. Chem. 1999 Jul. 30; 274(31): 21569-74 and Gosling J, et al., Cutting edge: identification of a novel chemokine receptor that binds dendritic cell- and T cell-active chemokines including ELC, SLC, and TECK., J. Immunol. 2000 Mar. 15; 164(6):2851-6 was used.
In these assays, MCF-7 and/or MDA-MB-435S cells were interrogated with the target compounds and the ability of these compounds to displace ^125I radiolabeled SDF-1 was assessed using the protocol described in Dairaghi and Gosling. The target compounds were added to the plate to the indicated concentration and were then incubated with cells followed by the addition of radiolabeled chemokine (^125I SDF-1) for 3 hr at 4° C. in the following binding medium (25 mM HEPES, 140 mM NaCl, 1 mM CaCl2, 5 mM MgCl2 and 0.2% bovine serum albumin, adjusted to pH 7.1). All assays were then incubated for 3 hrs at 4° C. with gentle agitation. Following incubation in all binding assays, reactions were aspirated onto PEI-treated GF/B glass filters (Packard) using a cell harvester (Packard) and washed twice (25 mM HEPES, 500 mM NaCl, 1 mM CaCl2, 5 mM MgCl2, adjusted to pH 7.1). Scintillant (MicroScint 10, Packard) was added to the wells, and the filters were counted in a Packard Topcount scintillation counter. Data were analyzed and plotted using Prism (GraphPad Prism version 3.0a for Macintosh, GraphPad Software, www.graphpad.com).

**Q.** With `COc1cc(C(=O)N(C/C(C)=C/c2ccc(F)cc2F)C[C@@H]2CCCN2CC2(N(C)C)CCCC2)ccc1OC(F)F` (stereo in doubt) [Compound 15, 4-Difluoromethoxy-N-[3-(2,4-difluoro-phenyl)-2-methyl-allyl]-N-[1-(1-dimethylamino-cyclopentylmethyl)-pyrrolidin-2-ylmethyl]-3-methoxy-benzamide] as the compound, how does the IC50 read?
**A.** Its IC50 is at most 500 nM.

**Q.** `COc1cc(C(=O)N(C/C(C)=C/c2ccccc2)C[C@@H]2C[C@@H]3CCCC[C@@H]3N2)cc2c1OC(C)(C)O2` [Compound 1, 7-Methoxy-2,2-dimethyl-benzo[1,3]dioxole-5-carboxylic acid (2-methyl-3-phenyl-allyl)-[(2S,6S,7S)-1-(octahydro-indol-2-yl)methyl]-amide] was tested. Which IC50 did it give?
**A.** Its IC50 is at most 500 nM.

**Q.** Which IC50 does the source give for `COc1cc(C(=O)N(C/C(C)=C/c2ccccc2)C[C@@H]2C[C@@H]3CCC[C@@H]3N2)cc2c1OC(C)(C)O2` [Compound 2, 7-Methoxy-2,2-dimethyl-benzo[1,3]dioxole-5-carboxylic acid (2-methyl-3-phenyl-allyl)-[(2S,5S,6S)-1-(octahydro-cyclopenta[b]pyrrol-2-yl)methyl]-amide] here?
**A.** Its IC50 is at most 500 nM.

**Q.** For `COc1cc(C(=O)N(C/C(C)=C/c2ccc(F)cc2F)C[C@@H]2C[C@@H]3CCCC[C@@H]3N2)ccc1OC(F)F` [Compound 3, 4-Difluoromethoxy-N-[(E)-3-(2,4-difluoro-phenyl)-2-methyl-allyl]-3-methoxy-N-[(2S,3aS,7aS)-1-(octahydro-indol-2-yl)methyl]-benzamide], which IC50 is on record?
**A.** Its IC50 is at most 500 nM.

**Q.** `COc1cc(C(=O)N(C/C(C)=C/c2ccc(F)cc2F)C[C@@H]2C[C@@H]3CCCC[C@@H]3N2)cc2c1OC(C)(C)O2` [Compound 4, 7-Methoxy-2,2-dimethyl-benzo[1,3]dioxole-5-carboxylic acid [(E)-3-(2,4-difluoro-phenyl)-2-methyl-allyl]-[(2S,3aS,7aS)-1-(octahydro-indol-2-yl)methyl]-amide] was tested. Which IC50 did it give?
**A.** The IC50 was at most 500 nM.

**Q.** How did the IC50 turn out when `COc1ccc(C(=O)N(C/C(C)=C/c2ccc(F)cc2F)C[C@@H]2C[C@@H]3CCCC[C@@H]3N2)cc1OC` [Compound 5, N-[(E)-3-(2,4-Difluoro-phenyl)-2-methyl-allyl]-3,4-dimethoxy-N-[(2S,3aS,7aS)-1-(octahydro-indol-2-yl)methyl]-benzamide] was run?
**A.** The IC50 was at most 500 nM.

**Q.** With `COc1cc(C(=O)N(C/C(C)=C/c2ccccc2)CC2CCCN2C[C@H]2CC[C@@H](NC(C)C)CC2)cc2c1OC(C)(C)O2` (stereo partly drawn) [Compound 6, Methoxy-2,2-dimethyl-benzo[1,3]dioxole-5-carboxylic acid [(S)-1-(4-isopropylamino-cyclohexylmethyl)-pyrrolidin-2-ylmethyl]-((E)-2-methyl-3-phenyl-allyl)-amide] as the compound, how does the IC50 read?
**A.** The IC50 was at most 500 nM.

**Q.** Which IC50 does the source give for `COc1ccc(C(=O)N(C/C(C)=C/c2ccc(F)cc2F)C[C@@H]2CCCN2C[C@H]2CC[C@@H](N)C2)cc1OC` [Compound 7, N-[(S)-1-((1S,3R)-3-Amino-cyclopentylmethyl)-pyrrolidin-2-ylmethyl]-N-[(E)-3-(2,4-difluoro-phenyl)-2-methyl-allyl]-3,4-dimethoxy-benzamide] here?
**A.** Its IC50 is at most 500 nM.

**Q.** Which IC50 does the source give for `COc1ccc(C(=O)N(C/C(C)=C/c2ccc(F)cc2F)C[C@@H]2CCCN2C[C@H]2CC[C@H](NS(C)(=O)=O)CC2)cc1OC` [Compound 9, N-(S)-[(E)-3-(2,4-Difluoro-phenyl)-2-methyl-allyl]-N-[(S)-1-(4-methanesulfonylamino-cyclohexylmethyl)-pyrrolidin-2-ylmethyl]-3,4-dimethoxy-benzamide] here?
**A.** The IC50 was at most 500 nM.

**Q.** `COc1ccc(C(=O)N(C/C(C)=C/c2ccc(F)cc2F)C[C@@H]2CCCN2CC2CCC(N)CC2)cc1OC` (stereo partly drawn) [Compound 10, N-[(S)-1-(4-Amino-cyclohexylmethyl)-pyrrolidin-2-ylmethyl]-N-[(E)-3-(2,4-difluoro-phenyl)-2-methyl-allyl]-3,4-dimethoxy-benzamide] was tested. Which IC50 did it give?
**A.** Its IC50 is at most 500 nM.

**Q.** With `COc1cc(C(=O)N(C/C(C)=C/c2ccc(F)cc2F)C[C@@H]2CCCN2C[C@H]2CC[C@@H](NS(C)(=O)=O)CC2)ccc1OC(F)F` [Compound 11] as the compound, how does the IC50 read?
**A.** Its IC50 is at most 500 nM.

**Q.** Which IC50 does the source give for `COc1ccc(C(=O)N(C/C(C)=C/c2ccc(F)cc2F)C[C@@H]2CCCN2C[C@H]2CC[C@@H](N)CC2)cc1OC` [Compound 13, N-[1-(4-amino-cyclohexylmethyl)-pyrrolidin-2-ylmethyl]-N-[3-(2,4-difluoro-phenyl)-2-methyl-allyl]-3,4-dimethoxy-benzamide] here?
**A.** The IC50 was at most 500 nM.

**Q.** Which IC50 does the source give for `COc1cc(C(=O)N(C/C(C)=C/c2ccc(F)cc2F)C[C@H]2CCCN2C[C@H]2CC[C@@H](N)CC2)ccc1OC(F)F` [Compound 14] here?
**A.** The IC50 was at most 500 nM.

**Q.** How did the IC50 turn out when `COc1cc(C(=O)N(C/C(C)=C/c2ccc(F)cc2F)CC2CCCN2CC2(N)CCCC2)ccc1OC(F)F` (stereo not drawn) [Compound 16, N-[1-(1-Amino-cyclopentylmethyl)-pyrrolidin-2ylmethyl]-4-difluoromethoxy-N-[3-(2,4-difluoro-phenyl)-2-methyl-allyl]-3-methoxy-benzamide] was run?
**A.** The IC50 was at most 700 nM.

**Q.** With `COc1cc(C(=O)N(C/C(C)=C/c2ccc(F)cc2F)CC2CCCN2CC2(NS(C)(=O)=O)CCCC2)ccc1OC(F)F` (stereo not drawn) [Compound 17] as the compound, how does the IC50 read?
**A.** The IC50 was at most 500 nM.

**Q.** Which IC50 does the source give for `COc1cc(C(=O)N(C/C(C)=C/c2ccc(F)cc2F)Cc2nccn2C)ccc1OC(F)F` [Compound 18, 4-difluoromethoxy-N-[3-(2,4-difluoro-phenyl)-2-methyl-allyl]-3-methoxy-N-(1-methyl-1H-imidazol-2-ylmethyl)-benzamide] here?
**A.** The IC50 was at most 2100 nM.

**Q.** How did the IC50 turn out when `COc1ccc(C(=O)N(CC2=NCCN2)C/C(C)=C/c2ccc(F)cc2F)cc1OC` [Compound 19, N-[(E)-3-(2,4-Difluoro-phenyl)-2-methyl-allyl]-N-(4,5-dihydro-1 H-imidazol-2-ylmethyl)-3,4-dimethoxy-benzamide hydrochloride] was run?
**A.** The IC50 was at most 500 nM.

**Q.** How did the IC50 turn out when `COc1ccc(C(=O)N(C/C(C)=C/c2ccc(F)cc2F)CC2CCC3COCCN32)cc1OC` (stereo not drawn) [Compound 20] was run?
**A.** The IC50 was at most 2100 nM.
